Measured values from patent US20060233714A1, “Use of a volatile liquid at atmospheric pressure and ambient temperature for the production of pharmaceutical or biological compositions” (priority 2003, published 2006).

Experiments:
[1] = Evaporation time of the liquid brought into contact with living human hands; format: physicochemical; conditions: liquid applied to living human hands/skin; averages; 1 ml or 2 ml
Method: For an HFE having a vapor pressure at 25° C. and atmospheric pressure of 28,000 Pa (280 mbar), the evaporation time when 1 ml is brought into contact with living human hands was about 4 seconds; for an HFE having a vapor pressure at 25° C. and atmospheric pressure of 14,000 Pa (140 mbar), the evaporation time was 7 seconds; for an HFE having a vapor pressure at 25° C. and atmospheric pressure of 2100 Pa (21 mbar), the evaporation time was about 15 seconds; and for an HFE having a vapor pressure at 25° C. and atmospheric pressure of 69,800 Pa, the evaporation time was about 1 s.
The evaporation times indicated above are averages for 2 ml applied to the skin. They depend in particular on the temperature of the substrate to which they are applied and can vary between individuals, for application to the skin and mucosae, according to the body temperature and room temperature.

[2] = Vapor pressure at 25° C. and atmospheric pressure

Molecule	evaporation time on the hands [1]	vapor pressure at 25° C. and atmospheric pressure [2]
ethoxynonafluorobutane	about 7 s	–
methoxynonafluorobutane	about 4 s	28,000 Pa
COC(F)(F)C(F)(F)C(F)(F)F [methoxyheptafluoropropane]	about 1 s	69,800 Pa
